Measured values taken from PubChem BioAssay AID434951 (Broad Institute, 2010).
The source made the active and inactive calls.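 The calls were made as follows: active = a fitted half-maximal concentration EC50 for the rise in nuclear signal no higher than ten times the top dose tested; inconclusive = flat fit with activity between 30% and 70%, or unusable fit; inactive = EC50 beyond ten times the top dose.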

What follows are compounds tested against Hypoxia-inducible factor 1-alpha (Homo sapiens) (UniProt Q16665) (assay: HIF pathway activation, GFP-HIF1alpha translocation – imaging, fluorescence, U2OS GFP-HIF1alpha, confirmation (AID 434951)). Details: U2OS GFP-HIF1alpha nuclear intensity, high-content imaging.
Sequence of Hypoxia-inducible factor 1-alpha (Homo sapiens) (Q16665 whole entry, looked up): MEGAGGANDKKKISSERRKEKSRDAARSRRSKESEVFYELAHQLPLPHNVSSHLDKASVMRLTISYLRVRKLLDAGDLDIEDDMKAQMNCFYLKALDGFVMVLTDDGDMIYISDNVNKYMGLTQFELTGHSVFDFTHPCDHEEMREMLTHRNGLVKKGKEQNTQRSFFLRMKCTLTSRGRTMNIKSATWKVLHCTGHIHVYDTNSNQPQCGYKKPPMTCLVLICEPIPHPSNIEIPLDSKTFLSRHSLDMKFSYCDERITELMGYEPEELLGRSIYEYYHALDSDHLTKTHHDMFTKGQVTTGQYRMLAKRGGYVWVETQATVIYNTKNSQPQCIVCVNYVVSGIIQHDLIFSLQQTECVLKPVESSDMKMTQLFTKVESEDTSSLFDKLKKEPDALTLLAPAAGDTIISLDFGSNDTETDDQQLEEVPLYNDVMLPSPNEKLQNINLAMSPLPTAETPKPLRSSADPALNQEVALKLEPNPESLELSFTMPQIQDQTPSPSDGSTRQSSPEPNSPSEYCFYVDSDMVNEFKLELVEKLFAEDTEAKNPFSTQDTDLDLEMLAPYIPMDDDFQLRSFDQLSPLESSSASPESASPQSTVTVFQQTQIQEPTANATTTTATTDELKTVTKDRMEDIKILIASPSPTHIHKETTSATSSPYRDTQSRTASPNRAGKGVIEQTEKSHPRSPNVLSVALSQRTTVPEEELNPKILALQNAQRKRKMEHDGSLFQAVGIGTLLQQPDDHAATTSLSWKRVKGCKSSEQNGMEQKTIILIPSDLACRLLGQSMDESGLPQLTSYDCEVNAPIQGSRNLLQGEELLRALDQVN

SMILES	EC50
O=C(N/N=C/c1ccc(O)cc1O)c1ccc(CN2C(=O)c3cccc4cccc2c34)cc1	19.6 µM
O=C(O)c1cccc(N2CCCC2=O)c1	> 35 µM (inactive)
COc1cc2c(cc1OC)C(c1ccccc1)N(S(C)(=O)=O)CC2 (stereo not drawn)	> 35 µM (inactive)
O=C(N/N=C\c1c(O)ccc2ccccc12)c1cncc(Br)c1	6.48 µM
COCCNC(=O)c1cc(-c2cccs2)on1	12 µM
Nc1ccc(C(=O)Nc2ccc3nc(-c4ccncc4)[nH]c3c2)cc1	> 35 µM (inactive)
CCC/C(O)=C1\C(=O)CC(C)(C)CC1=NCc1ccccc1	> 35 µM (inactive)
Cc1ccc2nc(-c3ccccn3)c(Nc3ccccc3C)n2c1	6.13 µM
CCN(CC)c1ccc(/C=N/NC(=O)c2nnn(-c3nonc3N)c2C(C)C)c(O)c1	3.55 µM
CCc1ccc(OCC(=O)Nc2ccncc2)c(Br)c1	> 35 µM (inactive)
CCc1nc(SCC(=O)c2ccccc2)c2ccccc2n1	> 35 µM (inactive)
COc1ccc2nc(NC(=O)Nc3ccccc3OC)sc2c1	> 35 µM (inactive)
Cc1c(Cl)c([N+](=O)[O-])nn1CC(=O)NC12CC3CC(CC(C3)C1)C2	> 35 µM (inactive)
CCn1ncc(C2=NOC(C(=O)Nc3ccc4c(c3)OCO4)C2)c1C (stereo not drawn)	> 35 µM (inactive)
Cc1nc(C(=O)Nc2ccc(Cl)cc2Cl)nn1-c1cc(OC(C)C)c(Cl)cc1Cl	> 35 µM (inactive)
Cc1ccnc(NS(=O)(=O)c2cc([N+](=O)[O-])ccc2C)c1	> 35 µM (inactive)
Cc1ccc(CN2[C@@H](CC(C)C)COCCS2(=O)=O)cc1	> 35 µM (inactive)
S=c1[nH]nc(-c2ccco2)n1/N=C/c1cccs1	> 35 µM (inactive)
Cc1ccc2nc(-c3ccccc3NC(=O)CCC(=O)O)c(=O)[nH]c2c1	> 35 µM (inactive)
Brc1ccc(N/N=C(/N=Nc2nn[nH]n2)c2ccccc2)cc1	5.73 µM
CC(C)(C)c1ccc(N2C(=O)CC(C/C=C/c3ccccc3)C2=O)cc1 (stereo not drawn)	> 35 µM (inactive)
COc1ccc(CC(=O)NNC(=S)NCC2CC2)cc1OC	> 35 µM (inactive)
O=C(Nc1ccc2ccccc2c1)c1ccccc1O	> 35 µM (inactive)
COc1cc(C(=O)N/N=C(\c2ccccc2)c2ccccn2)cc(OC)c1OC	11.3 µM
CCOc1nc(Nc2ccc(OC)cc2)nc(OCC)n1	> 35 µM (inactive)
O=C(NCc1nc2ccccc2[nH]1)c1c(F)c(F)c(F)c(F)c1F	> 35 µM (inactive)
Cc1ccc(C)c(SCC(=O)OCC(=O)N2CC(C)OC(C)C2)c1 (stereo not drawn)	> 35 µM (inactive)

SMILES	EC50
O=[N+]([O-])c1cccc(/C=C/c2ccc3cccc(O)c3n2)c1	33.9 µM
ONC=Nc1cccc2nonc12	> 35 µM (inactive)
O=C(NCc1ccc(F)cc1)C1CCN(S(=O)(=O)N2CCOCC2)CC1	> 35 µM (inactive)
Cc1cc(C)cc(NC(=O)c2cccc(NC(=O)c3ccco3)c2)c1	> 35 µM (inactive)
CCOC(=O)N1CCN(c2ccc(Cl)c(Cl)c2)CC1	> 35 µM (inactive)
COc1ccc(CCNc2nncc(=O)[nH]2)cc1OC	> 35 µM (inactive)
Cc1cccc(CCNC(=O)Cn2ncc3c([nH]c4ccc(C)cc43)c2=O)c1	> 35 µM (inactive)
CCCCCC(=O)NNC(=S)NC(=O)c1cccc([N+](=O)[O-])c1	> 35 µM (inactive)
Oc1ccc(CCNc2c3ccccc3nc3ccccc23)cc1O	> 35 µM (inactive)
COc1ccc(CCNC(=O)COC(=O)CCC(=O)c2ccc(F)cc2)cc1OC	> 35 µM (inactive)
c1ccc(CSC2=NNC(c3ccccn3)S2)cc1 (stereo not drawn)	18.6 µM
O=C(NNC(=S)Nc1ccc(Cl)c(Cl)c1)c1ccccn1	6.71 µM
CN(C)C=NC(=O)c1cn(-c2ccc(F)cc2)c(=O)c2ccccc12	> 35 µM (inactive)
Oc1[nH]c2ccccc2c1N=NC(=S)N1CCOCC1	8 µM
CC(=O)OCCCNc1cc(Sc2ccc(C)cc2)c2nonc2c1[N+](=O)[O-]	> 35 µM (inactive)
COc1ccc(CCNC(=O)CC(NC(=O)c2ccccc2Cl)c2ccccc2)cc1 (stereo not drawn)	> 35 µM (inactive)
COc1ccc(CN(C)CC(=O)Nc2ccc(SC(F)F)cc2)cc1OC	> 35 µM (inactive)
C(/CCc1ccccc1)=N\Nc1nc2ccccc2[nH]1	35.9 µM
O=C1CSCN1c1ccc(Cl)cc1	> 35 µM (inactive)
CCN(CC)S(=O)(=O)c1ccc(N2CCOCC2)c(NC(=O)c2cccc3ccccc23)c1	> 35 µM (inactive)
O=C1C=C(c2ccccc2)CC(c2cccs2)C1n1cnc([N+](=O)[O-])c1 (stereo not drawn)	> 35 µM (inactive)
Cn1c(SCC(=O)Nc2ccccc2)nnc1-c1ccc(NC(=O)CCc2ccccc2)cc1	> 35 µM (inactive)
Cc1ccc2nc(SCC(=O)Nc3ccc(Br)cc3)nc(=O)n2c1	> 35 µM (inactive)
CC1CCN(C(=O)CS(=O)(=O)Cc2ccccc2)CC1	> 35 µM (inactive)
CC(C)C(=O)NC(c1ccco1)c1ccc2cccnc2c1O (stereo not drawn)	4.47 µM
CCCCCN(C(=O)CCC(=O)OCC(=O)c1ccc(C(C)CC)cc1)c1c(N)n(CCCC)c(=O)[nH]c1=O (stereo not drawn)	> 35 µM (inactive)
